Measured values as given in ChEMBL document CHEMBL4613257, “Advanced Glycation End Product Inhibition by Alkaloids from Ocotea paranapiacabensis for the Prevention of Skin Aging” (2020).

Key:
Type in all cases: functional
Zone of skin [1] = test: Anti-aging activity in reconstructed human skin assessed as dermis contraction at 150 uM by hematoxylin and eosin staining-based microscopic analysis (reference value: 57.4%)
[2] = Anti-glycation activity assessed as inhibition of AGE formation at 150 uM incubated for 3 days in presence of BSA and MGO by fluorescence based assay relative to control; set-up: scale not given: the % may be the effect or the level left
Zone of skin [3] = test: Anti-aging activity in reconstructed human skin assessed as dermis contraction at 10 mM by hematoxylin and eosin staining-based microscopic analysis (reference value: 57.4%)
[4] = Anti-glycation activity assessed as inhibition of AGE formation at 10 mM incubated for 3 days in presence of BSA and MGO by fluorescence based assay relative to control; set-up: scale not given: the % may be the effect or the level left

SMILES | Activity (Zone of skin [1]) [%] | Activity [2] [%] | Activity (Zone of skin [3]) [%] | Activity [4] [%]
C[N+]1(C)CCc2cc(O)c(O)cc2C1Cc1ccc(O)cc1 (stereo not drawn) | 8.7 | 61.5 to 63 |  | 
CN1CCc2cc(O)c(O)cc2C1Cc1ccc(O)cc1 (stereo not drawn) | 4.2 | 98.2 |  | 
COc1cc2c(cc1O)C(Cc1ccc(O)cc1)[N+](C)(C)CC2 (stereo not drawn) |  | 26.1 |  | 
C[N+]1(C)C=Cc2cc(O)c(O)cc2C1Cc1ccc(O)cc1 (stereo not drawn) |  | 83.3 |  | 
N=C(N)NN [PIMAGEDINE] |  |  | 49.7 | 92.2
